# Data from US12037344B2, “NLRP3 modulators” (INNATE TUMOR IMMUNITY, INC., priority 2018, dated 2024).
# What was measured:
# THP-1 cells = experiment: Measurement of IL-1β production, hTRF protocol (second alternative procedure), THP-1 cells; type: cell-based, human; conditions: Homo sapiens, THP-1, IL-1β production, human cells; read-out: NLRP3 hILIB EC50
# Summary of the method: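 THP-1 cells differentiated overnight with 50 ng/ml PMA, then plated at 50,000 cells/well in RPMI with 2% FBS onto serial compound dilutions (top final concentration 10 μM) for 2 hours at 37° C. Supernatant IL-1β measured by hTRF (antibodies at 1:40, overnight at 4° C), read at 665/615 nm against a standard curve.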
# TLR7 = molecular target: T1, TLR7 (Homo sapiens, UniProt Q9NYK1); experiment: In vitro human TLR7 binding reporter assay (HEK-Blue, NF-kB/AP1-inducible SEAP); type: cell-based; conditions: activity range, read-out: TLR7 Agonist EC50
# T1 construct: human HEK-Blue cells co-expressing a TLR7 or TLR8 gene
# T1 sequence (Q9NYK1 27-1049): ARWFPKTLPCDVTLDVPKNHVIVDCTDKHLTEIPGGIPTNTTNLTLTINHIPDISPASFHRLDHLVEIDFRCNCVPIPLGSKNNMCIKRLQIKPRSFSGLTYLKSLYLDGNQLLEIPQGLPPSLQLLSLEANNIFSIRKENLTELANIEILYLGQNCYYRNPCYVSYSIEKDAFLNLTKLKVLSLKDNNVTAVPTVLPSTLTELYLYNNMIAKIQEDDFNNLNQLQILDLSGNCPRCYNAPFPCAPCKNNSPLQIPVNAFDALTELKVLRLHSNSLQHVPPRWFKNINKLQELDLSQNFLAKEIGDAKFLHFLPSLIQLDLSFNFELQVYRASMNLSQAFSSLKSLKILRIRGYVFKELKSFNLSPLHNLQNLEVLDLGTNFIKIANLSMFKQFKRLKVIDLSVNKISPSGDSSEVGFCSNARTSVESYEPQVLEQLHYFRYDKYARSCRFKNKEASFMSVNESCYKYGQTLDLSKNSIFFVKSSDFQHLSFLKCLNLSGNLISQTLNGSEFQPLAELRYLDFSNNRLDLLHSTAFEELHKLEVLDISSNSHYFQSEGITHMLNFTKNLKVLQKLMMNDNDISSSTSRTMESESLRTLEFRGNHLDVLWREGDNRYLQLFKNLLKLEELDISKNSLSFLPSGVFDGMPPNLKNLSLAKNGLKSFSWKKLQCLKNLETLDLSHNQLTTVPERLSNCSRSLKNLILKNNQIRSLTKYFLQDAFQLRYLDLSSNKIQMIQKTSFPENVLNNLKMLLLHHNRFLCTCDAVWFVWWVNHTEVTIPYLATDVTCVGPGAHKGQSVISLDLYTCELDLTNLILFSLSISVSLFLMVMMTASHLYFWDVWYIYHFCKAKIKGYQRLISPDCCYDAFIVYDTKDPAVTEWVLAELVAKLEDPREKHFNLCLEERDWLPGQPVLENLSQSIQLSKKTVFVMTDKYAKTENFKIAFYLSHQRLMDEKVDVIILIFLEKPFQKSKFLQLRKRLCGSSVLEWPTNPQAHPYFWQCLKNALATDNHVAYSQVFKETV
# Summary of the method: (§1)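 Cells are seeded and grown for 24 h. Compounds or DMSO are then added and incubated 18 h at 37 °C. Quanti-Blue is added, and SEAP is read after thirty minutes. EC50 values are normalized, with RLU from 50 μM reference standard setting 100% Ymax.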
# TLR8 = molecular target: T2, TLR8 (Homo sapiens, UniProt Q9NR97); experiment: In vitro human TLR8 binding reporter assay (HEK-Blue, NF-kB/AP1-inducible SEAP); type: cell-based; conditions: activity range, read-out: TLR8 Agonist EC50
# T2 construct: human HEK-Blue cells co-expressing a TLR7 or TLR8 gene
# T2 sequence (Q9NR97 27-1041): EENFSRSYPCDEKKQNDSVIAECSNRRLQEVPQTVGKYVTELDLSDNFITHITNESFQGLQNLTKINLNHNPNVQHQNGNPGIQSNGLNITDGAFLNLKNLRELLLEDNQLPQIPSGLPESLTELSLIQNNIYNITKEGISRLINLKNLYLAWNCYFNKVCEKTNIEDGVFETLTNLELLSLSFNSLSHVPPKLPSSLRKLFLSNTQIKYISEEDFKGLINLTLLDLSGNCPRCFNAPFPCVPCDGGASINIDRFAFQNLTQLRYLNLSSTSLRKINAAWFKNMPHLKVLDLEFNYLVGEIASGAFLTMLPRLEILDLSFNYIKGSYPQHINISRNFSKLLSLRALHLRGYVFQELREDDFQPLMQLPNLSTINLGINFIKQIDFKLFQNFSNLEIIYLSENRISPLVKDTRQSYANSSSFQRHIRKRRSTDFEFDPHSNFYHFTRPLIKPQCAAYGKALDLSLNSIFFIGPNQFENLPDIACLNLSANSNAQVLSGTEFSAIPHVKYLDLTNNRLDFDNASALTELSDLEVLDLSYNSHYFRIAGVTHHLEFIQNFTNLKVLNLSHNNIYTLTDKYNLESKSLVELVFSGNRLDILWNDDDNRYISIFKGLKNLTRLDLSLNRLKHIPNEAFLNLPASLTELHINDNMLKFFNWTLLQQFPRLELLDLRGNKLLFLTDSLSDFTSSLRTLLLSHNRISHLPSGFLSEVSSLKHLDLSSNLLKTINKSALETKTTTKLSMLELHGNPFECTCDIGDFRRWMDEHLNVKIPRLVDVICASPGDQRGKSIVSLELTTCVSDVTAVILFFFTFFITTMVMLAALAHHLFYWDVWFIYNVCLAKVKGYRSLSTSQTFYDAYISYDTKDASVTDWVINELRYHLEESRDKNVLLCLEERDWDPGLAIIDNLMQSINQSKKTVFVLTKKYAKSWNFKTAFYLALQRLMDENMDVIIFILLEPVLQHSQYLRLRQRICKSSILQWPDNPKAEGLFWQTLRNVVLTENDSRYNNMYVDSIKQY
# Summary of the method: as §1
EC50 (THP-1 cells) [µM],EC50 (TLR7) [µM],EC50 (TLR8) [µM],Compound
0.16,> 100,> 100,Nc1nc2cc(-c3cc[nH]n3)ccc2c2[nH]c(CCNC(=O)c3ccc(F)cn3)cc12 [Example 417]
3.65,> 100,> 100,Nc1nc2cc(-c3cc[nH]n3)ccc2c2[nH]c(CNC(=O)c3ccc(F)cn3)cc12 [Example 418]
0.35,> 100,> 100,COCCNCc1cc2c(N)nc3cc(-c4cc[nH]n4)ccc3c2[nH]1 [Example 419]
0.51,> 100,> 100,CCNCc1cc2c(N)nc3cc(-c4cc[nH]n4)ccc3c2[nH]1 [Example 420]
0.46,> 100,> 100,Nc1nc2cc(-c3cc[nH]n3)ccc2c2[nH]c(CN[C@H]3CCOC3)cc12 [Example 421]
0.14,> 100,> 100,Nc1nc2cc(-c3cc[nH]n3)ccc2c2[nH]c(CN[C@@H]3CCOC3)cc12 [Example 422]
0.62,> 100,> 100,"Cc1[nH]c2c(c(N)nc3cc(-c4cc[nH]n4)ccc32)c1C [Example 423, 2,3-dimethyl-7-(1H-pyrazol-3-yl)-1H-pyrrolo[3,2-c]quinolin-4-amine]"
3.21,> 100,> 100,CC(=O)NC(C)Cn1cc2c(N)nc3cc(-n4cccn4)ccc3c2n1 (stereo not drawn) [Example 424]
5.73,> 100,> 100,CC(=O)NC(C)CCn1cc2c(N)nc3cc(-n4cccn4)ccc3c2n1 (stereo not drawn) [Example 425]
1.89,> 100,> 100,CC(N)CCn1cc2c(N)nc3cc(-n4cccn4)ccc3c2n1 (stereo not drawn) [Example 426]
2.01,> 100,> 100,CC(C)(O)CCn1ncc2c(N)nc3cc(-c4cc[nH]n4)ccc3c21 [Example 427]
1.81,> 100,> 100,CC(O)Cn1ncc2c(N)nc3cc(-c4cc[nH]n4)ccc3c21 (stereo not drawn) [Example 428]
13,> 100,> 100,CC(=O)NC(C)Cn1ncc2c(N)nc3cc(-c4cc[nH]n4)ccc3c21 (stereo not drawn) [Example 429]
1.9,> 100,> 100,Nc1nc2cc(-c3cc[nH]n3)ccc2c2c1cnn2CCN1CC(F)(F)C1 [Example 430]
1.23,> 100,> 100,CC(Cn1cc2c(N)nc3cc(-n4cccn4)ccc3c2n1)NC(=O)C(C)(C)F (stereo not drawn) [Example 431]
3.19,> 100,> 100,CC(C)(O)Cn1ncc2c(N)nc3cc(-c4cc[nH]n4)ccc3c21 [Example 432]
4.58,> 100,> 100,Nc1nc2cc(-n3cccn3)ccc2c2nn(CC3COCCN3)cc12 (stereo not drawn) [Example 433]
4.35,> 100,> 100,COC1CCN(CCn2ncc3c(N)nc4cc(-c5cc[nH]n5)ccc4c32)C1 (stereo not drawn) [Example 434]
3.61,> 100,> 100,COC1CN(CCn2ncc3c(N)nc4cc(-c5cc[nH]n5)ccc4c32)C1 [Example 435]
2.75,> 100,> 100,Nc1nc2cc(-c3cc[nH]n3)ccc2c2c1cnn2CCN1CCOCC1 [Example 436]

EC50 (THP-1 cells) [µM],EC50 (TLR7) [µM],EC50 (TLR8) [µM],Compound
0.56,> 100,> 100,NCc1cc2c(N)nc3cc(-n4cccn4)ccc3c2[nH]1 [Example 437]
0.99,> 100,> 100,NCc1cc2c(N)nc3cc(-c4ccn[nH]4)ccc3c2[nH]1 [Example 438]
0.32,> 100,> 100,CN(C)Cc1cc2c(N)nc3cc(-c4ccn[nH]4)ccc3c2[nH]1 [Example 439]
0.13,> 100,> 100,Nc1nc2cc(-c3ccn[nH]3)ccc2c2[nH]c(CCCO)cc12 [Example 440]
1.33,> 100,> 100,CCn1c(CN)cc2c(N)nc3cc(-c4ccn[nH]4)ccc3c21 [Example 441]
0.19,> 100,> 100,Nc1nc2cc(-c3ccn[nH]3)ccc2c2[nH]c(CCO)cc12 [Example 442]
0.23,> 100,> 100,CC(=O)NCc1cc2c(N)nc3cc(-c4ccn[nH]4)ccc3c2[nH]1 [Example 443]
0.26,> 100,> 100,CCn1c(CN(C)C)cc2c(N)nc3cc(-c4ccn[nH]4)ccc3c21 [Example 444]
0.66,> 100,> 100,CC(=O)NCc1cc2c(N)nc3cc(-n4cccn4)ccc3c2[nH]1 [Example 445]
0.2,> 100,> 100,Nc1nc2cc(-n3cccn3)ccc2c2[nH]c(CCCO)cc12 [Example 446]
0.38,> 100,> 100,COc1nc(C(=O)NCCc2cc3c(N)nc4cc(-c5ccn[nH]5)ccc4c3[nH]2)cs1 [Example 447]
1.78,> 100,> 100,CCn1c(CNC(C)=O)cc2c(N)nc3cc(-n4cccn4)ccc3c21 [Example 448]
0.7,> 100,> 100,CCn1c(CCCO)cc2c(N)nc3cc(-c4ccn[nH]4)ccc3c21 [Example 449]
0.53,> 100,> 100,CC(C)(O)Cn1cc2c(n1)c(N)nc1cc(-c3ccn[nH]3)ccc12 [Example 450]
1.26,> 100,> 100,CC(O)Cn1cc2c(n1)c(N)nc1cc(-c3ccn[nH]3)ccc12 (stereo not drawn) [Example 451]
0.4,> 100,> 100,CC(C)(O)CCn1cc2c(n1)c(N)nc1cc(-c3ccn[nH]3)ccc12 [Example 452]
0.31,> 100,> 100,CC(CO)n1cc2c(n1)c(N)nc1cc(-c3ccn[nH]3)ccc12 (stereo not drawn) [Example 453]
0.37,> 100,> 100,CC(CCO)n1cc2c(n1)c(N)nc1cc(-c3ccn[nH]3)ccc12 (stereo not drawn) [Example 454]
0.22,> 100,> 100,Nc1nc2cc(-c3ccn[nH]3)ccc2c2cn(CCO)cc12 [Example 455]
